According to BindingDB's records for doi:10.1016/j.ejmech.2023.115292 (National Research Centre, 2023):

Experiments:
[1] = Inhibition of SARS-CoV-2 RdRp transfected in human A549 cells incubated for 24 hrs by […]
[2] = Inhibition of SARS-CoV-2 RdRp transfected in HEK293T cells incubated for 24 hrs by […]

Row | SMILES | EC50 [1] | EC50 [2]
1 | CCOc1cccc(CNC(=O)CSc2cn(C(=O)OC(C)(C)C)c3ccccc23)c1 | 1.18 µM | 1.41 µM
2 | O=C(CSc1c[nH]c2ccccc12)c1ccc(Cl)c(Cl)c1 |  | 2.75 µM
3 | Cc1cccc(C(=O)CSc2c[nH]c3ccccc23)c1 |  | 2.53 µM
